This passage reports IC50 results from ChEMBL document CHEMBL4433201, “Progress in the development of selective heme oxygenase-1 inhibitors and their potential therapeutic application” (Eur J Med Chem, 2019).

Some results are limits rather than exact numbers.

For assay [1], the target named is T1, Heme oxygenase 2 (Homo sapiens, UniProt P30519).
T1 sequence (P30519 whole entry): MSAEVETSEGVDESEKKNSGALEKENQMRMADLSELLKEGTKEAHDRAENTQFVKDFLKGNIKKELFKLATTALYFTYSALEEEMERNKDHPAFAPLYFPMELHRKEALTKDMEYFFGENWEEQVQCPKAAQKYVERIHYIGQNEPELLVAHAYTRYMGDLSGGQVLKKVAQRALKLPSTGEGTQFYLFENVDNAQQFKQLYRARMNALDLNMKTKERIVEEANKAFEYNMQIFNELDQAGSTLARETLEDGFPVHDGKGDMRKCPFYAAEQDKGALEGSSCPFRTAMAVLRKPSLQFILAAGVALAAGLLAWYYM
Put plainly: Inhibition of HO-2 (unknown origin).

In assay [2] the target is T2, Heme oxygenase 1 (Rattus norvegicus, UniProt P06762).
T2 sequence (P06762 whole entry): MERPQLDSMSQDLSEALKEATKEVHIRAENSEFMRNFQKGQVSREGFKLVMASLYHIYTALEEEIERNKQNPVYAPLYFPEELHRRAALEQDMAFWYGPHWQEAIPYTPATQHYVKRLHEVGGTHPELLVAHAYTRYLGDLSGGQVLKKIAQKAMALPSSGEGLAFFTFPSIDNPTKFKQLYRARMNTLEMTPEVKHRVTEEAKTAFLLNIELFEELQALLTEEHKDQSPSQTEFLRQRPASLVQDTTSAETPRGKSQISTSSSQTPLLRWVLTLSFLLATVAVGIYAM
In words: Inhibition of HO-1 in Sprague-Dawley rat spleen microsomes using NADPH as substrate incubated for 60 mins by spectrometry based assay.

For assay [3], the target named is T3, Heme oxygenase 1 (Homo sapiens, UniProt P09601).
T3 sequence (P09601 whole entry): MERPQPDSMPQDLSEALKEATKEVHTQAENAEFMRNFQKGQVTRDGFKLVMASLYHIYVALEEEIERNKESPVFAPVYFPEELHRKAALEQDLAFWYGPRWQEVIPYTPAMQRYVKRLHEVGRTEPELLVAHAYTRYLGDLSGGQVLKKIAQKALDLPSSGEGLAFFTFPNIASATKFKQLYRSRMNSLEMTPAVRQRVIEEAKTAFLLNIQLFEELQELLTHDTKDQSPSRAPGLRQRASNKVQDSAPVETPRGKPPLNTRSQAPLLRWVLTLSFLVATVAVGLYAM
Put plainly: Inhibition of human recombinant HO-1 by spectrometry based assay.

Assay [4] is described as follows: Growth inhibition of […] B16 cells incubated for 72 hrs by sulforhodamine B assay. Format: functional. The following applies: B16, 72 h. For orientation: In SRB staining, fixed cells bind dye roughly in proportion to their protein.
For assay [5], the target named is T2, Heme oxygenase 1. In words: Inhibition of HO-1 in Sprague-Dawley rat spleen microsomes using NADPH as substrate preincubated for 10 mins followed by substrate addition and measured after 15 mins by GC analysis.
The target of assay [6] is T4, Heme oxygenase 2 (Rattus norvegicus, UniProt P23711).
T4 sequence (P23711 whole entry): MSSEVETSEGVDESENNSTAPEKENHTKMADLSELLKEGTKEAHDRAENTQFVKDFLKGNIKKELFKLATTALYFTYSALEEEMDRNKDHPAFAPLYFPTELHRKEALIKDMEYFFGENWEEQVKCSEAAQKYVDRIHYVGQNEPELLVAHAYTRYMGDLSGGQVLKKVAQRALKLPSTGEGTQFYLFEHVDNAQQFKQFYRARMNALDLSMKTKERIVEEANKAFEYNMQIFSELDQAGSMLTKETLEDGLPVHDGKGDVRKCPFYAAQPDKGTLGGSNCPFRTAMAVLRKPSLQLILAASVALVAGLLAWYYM
In words: Inhibition of HO-2 in Sprague-Dawley rat brain microsomes using NADPH as substrate preincubated for 10 mins followed by substrate addition and measured after 15 mins by GC analysis.

For the compound `O=C(Cn1ccnc1)C12CC3CC(CC(C3)C1)C2`, the IC50 (commonly the concentration that inhibits the measured activity by half) at Heme oxygenase 2 [1] was greater than 100 µM.
In turn, `O=[N+]([O-])c1ccc(C(O)Cn2ccnc2)cc1` (stereo not given) registered an IC50 at Heme oxygenase 1 [2] of 10 µM.
Turning to `O=C(Cn1ccnc1)c1ccc(Br)cc1`, at Heme oxygenase 1 [2], the half-inhibitory concentration (IC50) was found to be 2.5 µM.
On to `c1ccc(OCCn2ccnc2)cc1`, for which, at Heme oxygenase 1 [2], the IC50 was found to be 28 µM.
Regarding `OC(Cn1ccnc1)c1ccc(-c2ccc(Br)cc2)cc1` (stereo not given), the IC50 on Heme oxygenase 1 [3] was found to be 0.06 µM.
In the case of `OC(Cn1ccnc1)c1cccc(Br)c1` (stereo not given), the IC50 in assay [4] was found to be 37 µM.
Consider `FC(F)(F)c1ccc(COc2ccc(CCn3ccnc3)cc2)cc1`, for which, on Heme oxygenase 1 [3], the IC50 stood at 54 µM.
`Brc1ccc(Cn2c(CN3CCOCC3)nc3ccccc32)cc1`: the results for the IC50 against Heme oxygenase 1 [5] and against Heme oxygenase 2 [6] were greater than 100 µM and 30.1 µM, respectively.
Regarding `Brc1ccc(Cn2c(CC3CCCCC3)nc3ccccc32)cc1`, the IC50 against Heme oxygenase 1 [5] is greater than 100 µM; at Heme oxygenase 2 [6], 5.4 µM.
As for `Clc1ccc(Cn2c(CC3CC4CCC3C4)nc3ccccc32)cc1` (stereo not given), the half-inhibitory concentration (IC50) was greater than 100 µM against Heme oxygenase 1 [5] and 4.3 µM at Heme oxygenase 2 [6].
`Brc1ccc(CCCCn2ccnc2)cc1`: the IC50 on Heme oxygenase 1 [3] was determined as 0.25 µM.
For the compound `Clc1ccc(Cn2c(CC3CCCCC3)nc3ccccc32)cc1`, the IC50 is greater than 100 µM on Heme oxygenase 1 [5] and 5.4 µM against Heme oxygenase 2 [6].
For `Brc1ccc(Cn2c(Cn3ccnc3)nc3ccccc32)cc1`, the IC50 at Heme oxygenase 1 [5] came out at 2.7 µM; at Heme oxygenase 2 [6], 4.2 µM.
In the case of `Clc1ccc(Cn2c(CC3CCCC3)nc3ccccc32)cc1`, the IC50 on Heme oxygenase 1 [5] came out at 32.4 µM; at Heme oxygenase 2 [6] it was 3.3 µM.
Take `c1ccc(COc2ccc(CCn3ccnc3)cc2)cc1`: the IC50 at Heme oxygenase 1 [3] was determined as 0.9 µM.
For the compound `Clc1ccc(Cn2c(CN3CCOCC3)nc3ccccc32)cc1`, the IC50 against Heme oxygenase 1 [5] is greater than 100 µM; on Heme oxygenase 2 [6], 31.9 µM.
On the same counts, the results for `Brc1ccc(Cn2c(CC3CC4CCC3C4)nc3ccccc32)cc1` (stereo not given) are greater than 100 µM and 5.1 µM.
Regarding `COc1ccc2[nH]c(=O)c(-c3nc(-c4ccccc4)c(-c4ccccc4)[nH]3)cc2c1`, inhibition on Heme oxygenase 1 [2] was half-maximal at 9.2 µM (IC50).
With `Brc1cccc(OCCCCn2ccnc2)c1`, the half-maximal inhibitory concentration (IC50) against Heme oxygenase 2 [1] turned out to be 2.2 µM.
`Brc1ccc(OCCCCCCn2ccnc2)cc1`: the midpoint of inhibition against Heme oxygenase 1 [2], the IC50, lay at 10 µM.
For the compound `Brc1ccc(CCC2(Cn3ccnc3)OCCO2)cc1`, the half-inhibitory concentration (IC50) was greater than 100 µM against Heme oxygenase 2 [1] and 1.9 µM on Heme oxygenase 1 [3].
